Test results from patent US10544095B2 (Pfizer Inc., priority 2015, dated 2020).

Molecular target: hTDO2 in human glioblastoma A172 cells (Homo sapiens (Human), UniProt P48775)
Assay: Cellular assay for TDO2 activity determination in A172 cells
Format: cell-based
Conditions: overnight incubation, kynurenine absorbance at 480 nm
Description: The compounds of formula I inhibit the activity of human TDO2 in cells that constitutively express TDO2, such as A172 cells. A172 is a cell line derived from human brain glioblastoma cells. The cells are available from the American Type Culture Collection (ATCC®) as CRL-1620™.
The assay (adapted from Pilotte L et al., Proc Natl Acad Sci USA, 2012, 109(7), 2497-502) was performed in 96-well flat bottom plates seeded with human glioblastoma A172 cells, naturally expressing hTDO2 (prepared as described in Tilman et al., Mol Cancer, 2007, 17(6), 80), at a concentration of 1.25×10^4 cells/well in a final volume of 200 μL. To determine TDO, the cells were incubated overnight at 37° C. at 5% CO2 in IMDM (Invitrogen) supplemented with 2% FBS and 2% penicillin/streptomycin in the presence of the compounds of the present invention, at different concentrations.
The plates were then centrifuged 5 min at 1000 rpm, and 100 μL of the supernatant were collected in a conical plate, 30 μL of TCA 30% were added and a further centrifuged at 3000×g for 10 minutes. 100 μL of the supernatant were collected in a flat bottomed plate and 100 μL of 2% (w/v) 4-(dimethylamino)-benzaldehyde in acetic acid and incubated for 5 min at room temperature. Kynurenine concentrations were determined by measuring the absorbance at 480 nm. A standard curve was made with pure kynurenine. The TDO activity was measured as described above using ten serial concentrations of the compounds of the present invention. Data were fitted using the Prism™ software (GraphPad Software, Inc.) using standard parameters.

hTDO2 in human glioblastoma A172 cells, sequence (P48775 whole entry): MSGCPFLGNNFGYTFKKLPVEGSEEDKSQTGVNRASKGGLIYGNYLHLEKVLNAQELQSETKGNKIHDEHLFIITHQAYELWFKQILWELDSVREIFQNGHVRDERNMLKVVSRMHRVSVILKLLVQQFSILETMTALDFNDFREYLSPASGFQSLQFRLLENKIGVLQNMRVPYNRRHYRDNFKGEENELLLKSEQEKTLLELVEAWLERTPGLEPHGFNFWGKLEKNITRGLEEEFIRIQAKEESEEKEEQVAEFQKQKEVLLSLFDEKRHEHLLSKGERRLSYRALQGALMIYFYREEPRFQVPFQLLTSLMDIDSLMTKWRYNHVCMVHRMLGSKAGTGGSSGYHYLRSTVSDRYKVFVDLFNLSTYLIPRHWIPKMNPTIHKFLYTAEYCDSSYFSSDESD

Compound | IC50
NS(=O)(=O)c1cc(Cl)c(-c2c[nH]c3cc(F)ccc23)c(Cl)c1 [Example 137, 3,5-dichloro-4-(6-fluoro-H-indol-3-yl)-benzenesulfonamide] | 7510 nM
CC(C)c1cc(-c2c[nH]c3cc(F)ccc23)ccc1S(=O)(=O)NCCC(N)=O [Example 163, 3-((4-(6-fluoro-1H-indol-3-yl)-2-isopropylphenyl)-sulfonamido) propanamide] | 2220 nM
CC(C)CC(=O)n1cc(-c2ccc(S(=O)(=O)N3CCNCC3)cc2)c2ccc(F)cc21 [Example 52, 1-(6-fluoro-3-(4-(piperazin-1-ylsulfonyl)phenyl)-1H-indol-1-yl)-3-methylbutan-1-one] | 1700 nM
NCCNS(=O)(=O)c1cc(-c2c[nH]c3cc(F)ccc23)ccc1O [Example 39, N-(2-aminoethyl)-5-(6-fluoro-1H-indol-3-yl)-2-hydroxy-benzenesulfonamide] | 2900 nM
CN(C)CCN1CCN(S(=O)(=O)c2ccc(-c3c[nH]c4cc(F)ccc34)cc2)CC1=O [Example 149, 1-(2-(dimethylamino)ethyl)-4-((4-(6-fluoro-1H-indol-3-yl)phenyl)sulfonyl)piperazin-2-one] | 443 nM
CNC(=O)c1cc(-c2c[nH]c3cc(F)ccc23)ccc1S(=O)(=O)N1CCNCC1 [Example 57, 5-(6-fluoro-1H-indol-3-yl)-N-methyl-2-(piperazin-1-ylsulfonyl)-benzamide] | 7100 nM
NCCNS(=O)(=O)c1cc(O)cc(-c2c[nH]c3cc(F)ccc23)c1 [Example 69, N-(2-aminoethyl)-3-(6-fluoro-1H-indol-3-yl)-5-hydroxy-benzenesulfonamide] | 330 nM
O=c1[nH]nc(CCNS(=O)(=O)c2ccc(-c3c[nH]c4cc(F)ccc34)cc2)o1 [Example 48, 4-(6-fluoro-1H-indol-3-yl)-N-(2-(5-oxo-4,5-dihydro-1,3,4-oxadiazol-2-yl)ethyl)benzenesulfonamide] | 440 nM
CC(C)Cc1cc(-c2c[nH]c3cc(F)ccc23)ccc1S(=O)(=O)NCCC(N)=O [Example 164, 3-((4-(6-fluoro-1H-indol-3-yl)-2-isobutylphenyl)-sulfonamido)propanamide] | 5930 nM
CCC(=O)n1cc(-c2ccc(S(=O)(=O)N3CCNCC3)cc2)c2ccc(F)cc21 [Example 51, 1-(6-fluoro-3-(4-(piperazin-1-ylsulfonyl)phenyl)-1H-indol-1-yl)-propan-1-one] | 630 nM
CS(=O)(=O)c1ccc(-c2c[nH]c3cc(F)ccc23)cc1CN [Example 178, (5-(6-fluoro-1H-indol-3-yl)-2-(methylsulfonyl)phenyl)methanamine] | 411 nM
N[C@@H]1CN(C(=O)CCNS(=O)(=O)c2ccc(-c3c[nH]c4cc(F)ccc34)cc2)C[C@H]1F [Example 174, (+)-N-(3-((3R,4R)-3-amino-4-fluoropyrrolidin-1-yl)-3-oxopropyl)-4-(6-fluoro-1H-indol-3-yl)benzenesulfonamide] | 383 nM
CN(C)CCCN1CCN(S(=O)(=O)c2ccc(-c3c[nH]c4cc(F)ccc34)cc2)CC1=O [Example 154, 1-(3-(dimethylamino)propyl)-4-((4-(6-fluoro-1H-indol-3-yl)phenyl)sulfonyl) piperazine-2-one] | 360 nM
NC(=O)c1cc(-c2c[nH]c3cc(F)ccc23)ccc1S(=O)(=O)N1CCNCC1 [Example 41, 5-(6-fluoro-1H-indol-3-yl)-2-(piperazin-1-ylsulfonyl)benzamide] | 990 nM
N[C@H]1CN(C(=O)CCNS(=O)(=O)c2ccc(-c3c[nH]c4cc(F)ccc34)cc2)C[C@H]1F (single isomer, unassigned) [Example 173] | 919 nM
O=C1CCCN1CC1(O)CCN(S(=O)(=O)c2ccc(-c3c[nH]c4cc(F)ccc34)cc2)C1 (stereo not shown) [Example 127, 1-((1-((4-(6-fluoro-1H-indol-3-yl)phenyl)sulfonyl)-3-hydroxypyrrolidin-3-yl)methyl)pyrrolidin-2-one] | 85500 nM
O=C(CCNS(=O)(=O)c1ccc(-c2c[nH]c3cc(F)ccc23)cc1)N1C[C@H](O)[C@@H](O)C1 [Example 171, (−)-N-(3-((3S,4S)-3,4-dihydroxypyrrolidin-1-yl)-3-oxopropyl)-4-(6-fluoro-1H-indol-3-yl)benzenesulfonamide] | 1740 nM
NCCCN1CCN(S(=O)(=O)c2ccc(-c3c[nH]c4cc(F)ccc34)cc2)CC1=O [Example 152, 1-(3-aminopropyl)-4-((4-(6-fluoro-1H-indol-3-yl)phenyl-)sulfonyl)piperazin-2-one] | 1320 nM
O=S(=O)(c1c(F)cc(-c2c[nH]c3cc(F)ccc23)cc1F)N1CCNCC1 [Example 75, 3-(3,5-difluoro-4-(piperazin-1-ylsulfonyl)phenyl)-6-fluoro-1H-indole] | 380 nM

Compounds with a lower IC50, results first:

IC50 | Compound
140 nM | O=S(=O)(c1ccc(-c2c[nH]c3cc(F)ccc23)cc1)N1CCNC(CO)C1 (stereo not shown) [Example 12, (4-((4-(6-fluoro-1H-indol-3-yl)phenyl)sulfonyl)piperazin-2-yl)-methanol]
171 nM | C[S+]([O-])CCNS(=O)(=O)c1ccc(-c2c[nH]c3cc(F)ccc23)cc1 (single isomer, unassigned; (+)) [Example 160, (+)-4-(6-fluoro-1H-indol-3-yl)-N-(2-(methylsulfinyl)-ethyl) benzenesulfonamide]
123 nM | O=S(=O)(c1ccc(-c2c[nH]c3cc(F)ccc23)cc1)N1CCC(O)(c2ccncn2)C1 (stereo not shown) [Example 119, 1-((4-(6-fluoro-1H-indol-3-yl)phenyl)sulfonyl)-3-(pyrimidin-4-yl)pyrrolidin-3-ol]
210 nM | O=S(=O)(N[C@@H]1CCOC1)c1ccc(-c2c[nH]c3cc(F)ccc23)cc1 [Example 55, (R)-4-(6-fluoro-1H-indol-3-yl)-N-(tetrahydrofuran-3-yl)-benzenesulfonamide]
220 nM | Cc1nc(CCNS(=O)(=O)c2ccc(-c3c[nH]c4cc(F)ccc34)cc2)c[nH]1 [Example 161, 4-(6-fluoro-1H-indol-3-yl)-N-(2-(2-methyl-1H-imidazol-4-yl)ethyl)benzenesulfonamide]
140 nM | O=S(=O)(NC1CNC1)c1ccc(-c2c[nH]c3cc(F)ccc23)cc1 [Example 68, N-(azetidin-3-yl)-4-(6-fluoro-1H-indol-3-yl)benzenesulfonamide]
133 nM | O=S(=O)(c1ccc(-c2c[nH]c3cc(F)ccc23)cc1)N1CCOC[C@H]1CO [Example 115, (R)-(4-((4-(6-fluoro-1H-indol-3-yl)phenyl)sulfonyl)morpholin-3-yl)methanol]
110 nM | N[C@@H]1CN(S(=O)(=O)c2ccc(-c3c[nH]c4cc(F)ccc34)cc2)C[C@@H]1F [Example 83, (−)-(cis)-4-fluoro-1-((4-(6-fluoro-1H-indol-3-yl)-phenyl)sulfonyl)-pyrrolidin-3-amine]
170 nM | O=C(NCCNS(=O)(=O)c1ccc(-c2c[nH]c3cc(F)ccc23)cc1)N1CCOCC1 [Example 108, N-(2-(4-(6-fluoro-1H-indol-3-yl)phenylsulfonamido)ethyl)-morpholine 4-carboxamide]
125 nM | O=S(=O)(c1ccc(-c2c[nH]c3cc(F)ccc23)cc1)N1C[C@H](O)[C@@H](O)[C@@H]1CO [Example 134, (2S,3S,4S)-1-((4-(6-fluoro-1H-indol-3-yl)phenyl)sulfonyl)-2-(hydroxymethyl) pyrrolidine-3,4-diol]
200 nM | O=S(=O)(c1ccc(-c2c[nH]c3cc(F)ccc23)cc1)N1CCN[C@@H](CO)C1 [Example 17, (R)-(4-((4-(6-fluoro-1H-indol-3-yl)phenyl)sulfonyl)piperazin-2-yl)methanol]
160 nM | CN(CCC(N)=O)S(=O)(=O)c1ccc(-c2c[nH]c3cc(F)ccc23)cc1 [Example 27, 3-(4-(6-fluoro-1H-indol-3-yl)-N-methylphenylsulfonamido)-propanamide]
250 nM | O=S(=O)(c1ccc(-c2c[nH]c3ccccc23)cc1)N1CCNCC1 [Example 20, 3-(4-(piperazin-1-ylsulfonyl)phenyl)-1H-indole]
161 nM | CN(CC(O)c1cnccn1)S(=O)(=O)c1ccc(-c2c[nH]c3cc(F)ccc23)cc1 (stereo not shown) [Example 135, 4-(6-fluoro-1H-indol-3-yl)-N-(2-hydroxy-2-(pyrazin-2-yl)ethyl)-N-methylbenzene-sulfonamide]
66 nM | O=S(=O)(NCCO)c1ccc(-c2c[nH]c3cc(F)ccc23)cc1 [Example 157, 4-(6-fluoro-1H-indol-3-yl)-N-(2-hydroxyethyl)-benzenesulfonamide]
260 nM | CN1CCN(S(=O)(=O)c2ccc(-c3c[nH]c4cc(F)ccc34)cc2)CC1=O [Example 42, 4-((4-(6-fluoro-1H-indol-3-yl)phenyl)sulfonyl)-1-methylpiperazin-2-one]
271 nM | NS(=O)(=O)c1ccc(-c2c[nH]c3cc(F)ccc23)c(Cl)c1 [Example 136, 3-chloro-4-(6-fluoro-1H-indol-3-yl) benzenesulfonamide]
84 nM | O=S(=O)(c1ccc(-c2c[nH]c3cc(F)ccc23)cc1)N1C[C@H](O)[C@@H](O)C1 [Example 66, (3S,4S) 1-[4-(6-Fluoro-1H-indol-3-yl)-benzenesulfonyl]-pyrrolidine-3,4-diol]
